Results on 23 molecules are retold here after patent US10280159B2 (AbbVie Deutschland GmbH & Co. KG, priority 2015, dated 2019).

Common to all, as to assay type: cell-based
One experiment deals with T1, human S1PR1 (Homo sapiens, UniProt P21453).
T1 construct: host or cells: CHO-K1
Nature of the experiment: Intracellular Ca2+ release (FLIPR) agonist potency, S1P1. To be noted: recombinant CHO-K1 cells expressing human S1PR1, aequorin, Gq/i5; Calcium 5 FLIPR; read-out: S1P1 EC50. In short, it runs like this:
(§1)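 CHO-K1 cells expressing the human receptor, aequorin and Gq/i5 were used; Ca²⁺ release read on FLIPR. EC50 derived from nonlinear fit of fluorescence data normalized to the phospho-fingolimod reference curve.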

A further experiment concerns the target T2, human S1PR5 (Homo sapiens, UniProt Q9H228).
T2 construct: host or cells: CHO-K1
As to the kind of experiment: Intracellular Ca2+ release (FLIPR) agonist potency, S1P5. The note with it: recombinant CHO-K1 cells expressing human S1PR5, aequorin, Gq/i5; Calcium 5 FLIPR; read-out: S1P5 EC50 range. In short, it runs like this:
as §1

The target in a further experiment is T3, human S1PR4 (Homo sapiens, UniProt O95977).
T3 construct: host or cells: CHO-K1
T3 sequence (O95977 1-384): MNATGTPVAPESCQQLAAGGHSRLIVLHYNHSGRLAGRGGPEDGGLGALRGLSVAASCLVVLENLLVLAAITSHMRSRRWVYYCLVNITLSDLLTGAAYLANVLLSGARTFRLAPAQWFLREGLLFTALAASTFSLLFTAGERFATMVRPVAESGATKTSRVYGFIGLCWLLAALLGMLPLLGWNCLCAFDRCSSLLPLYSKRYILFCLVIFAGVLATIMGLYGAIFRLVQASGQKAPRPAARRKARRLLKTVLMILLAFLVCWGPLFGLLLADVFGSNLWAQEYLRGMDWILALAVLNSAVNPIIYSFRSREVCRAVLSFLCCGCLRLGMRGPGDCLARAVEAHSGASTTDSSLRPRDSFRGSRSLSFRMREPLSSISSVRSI
As to the kind of experiment: Intracellular Ca2+ release (FLIPR) agonist potency, S1P4. To be noted: recombinant CHO-K1 cells expressing human S1PR4, aequorin, Gq/i5; Calcium 5 FLIPR; read-out: S1P4 EC50. The essentials: as §1

The next experiment deals with T4, human S1PR3 (Homo sapiens, UniProt Q99500).
T4 construct: host or cells: CHO-K1
T4 sequence (Q99500 whole entry): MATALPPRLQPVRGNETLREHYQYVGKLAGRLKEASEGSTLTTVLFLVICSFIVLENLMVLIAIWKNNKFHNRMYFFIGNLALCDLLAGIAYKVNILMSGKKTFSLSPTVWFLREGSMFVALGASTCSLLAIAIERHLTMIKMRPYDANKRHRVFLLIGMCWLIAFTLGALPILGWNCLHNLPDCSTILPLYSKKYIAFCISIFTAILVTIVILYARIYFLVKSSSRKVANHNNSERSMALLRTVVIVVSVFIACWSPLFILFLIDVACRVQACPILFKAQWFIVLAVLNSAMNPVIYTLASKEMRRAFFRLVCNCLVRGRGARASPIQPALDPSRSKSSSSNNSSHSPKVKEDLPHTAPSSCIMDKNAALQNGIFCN
Nature of the experiment: Intracellular Ca2+ release (FLIPR) agonist potency, S1P3. To be noted: recombinant CHO-K1 cells expressing human S1PR3, aequorin, Gq/i5; Calcium 5 FLIPR; read-out: S1P3 EC50. The protocol: Agonistic activity was measured using the method described below.
Intracellular Ca^2+ Release
Agonist potency and intrinsic activity was assessed by measurement of intracellular Ca^2+ release. Recombinant CHO-K1 cells (Euroscreen, Brussels, Belgium) expressing human S1PR5, S1PR1, S1PR3 or S1PR4 receptors, aequorin, and GTP binding protein Gq/i5 were cultured using a medium containing nutrient mixture F-12 Ham (Sigma-Aldrich) with 10% FBS, and 100 μg/mL gentamicin and equilibrated at 5% CO2.
Phospho-fingolimod was used as positive control. Antagonists were pre-incubated for 10 min with cells before addition of the agonist (phospho-fingolimod at EC80). Measurements were performed using a fluorometric imaging plate reader FLIPR®tetra (Molecular Devices). Agonist at the human S1P receptors were characterized by deducing EC50 (potency) values from a nonlinear fit to the measured fluorescence raw data after normalization to the reference agonist (phospho-fingolimod) curve.

Some results are limits rather than exact numbers.

T1 sequence (P21453 whole entry): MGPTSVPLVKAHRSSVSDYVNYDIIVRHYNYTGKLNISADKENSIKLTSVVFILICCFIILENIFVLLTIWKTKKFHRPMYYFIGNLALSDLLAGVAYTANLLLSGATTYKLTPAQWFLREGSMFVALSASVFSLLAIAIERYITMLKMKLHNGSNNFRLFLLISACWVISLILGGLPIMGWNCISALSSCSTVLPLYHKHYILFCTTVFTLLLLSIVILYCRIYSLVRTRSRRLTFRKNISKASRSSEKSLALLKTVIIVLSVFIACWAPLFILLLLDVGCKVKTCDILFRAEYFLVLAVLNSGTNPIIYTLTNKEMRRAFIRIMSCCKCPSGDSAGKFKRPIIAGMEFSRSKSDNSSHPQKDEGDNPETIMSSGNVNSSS
T2 sequence (Q9H228 whole entry): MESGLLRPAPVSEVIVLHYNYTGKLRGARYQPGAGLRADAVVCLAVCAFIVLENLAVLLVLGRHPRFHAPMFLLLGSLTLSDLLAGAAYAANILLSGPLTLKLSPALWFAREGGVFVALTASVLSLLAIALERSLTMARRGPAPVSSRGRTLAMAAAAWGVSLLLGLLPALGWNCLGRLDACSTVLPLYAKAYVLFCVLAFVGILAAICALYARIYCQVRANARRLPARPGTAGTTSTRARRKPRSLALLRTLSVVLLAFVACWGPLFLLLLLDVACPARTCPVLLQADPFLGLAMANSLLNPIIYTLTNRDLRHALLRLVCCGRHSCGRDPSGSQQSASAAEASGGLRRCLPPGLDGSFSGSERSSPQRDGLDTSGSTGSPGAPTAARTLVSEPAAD

Turning to `O=C(O)C1CCN(C2COc3cc(OCc4c(Cl)cccc4Cl)ccc3C2)C1` (single isomer, unassigned) [Compound 50, 1-(7-((2,6-dichlorobenzyl)oxy)chroman-3-yl)pyrrolidine-3-carboxylic acid], the EC50 (usually the concentration at which the effect is half-maximal) was greater than 1 µM at human S1PR1, less than 0.01 µM at human S1PR5, greater than 1 µM on human S1PR4 and greater than 1 µM at human S1PR3.

For the molecule `O=C(O)C1CN(C2COc3cc(OCc4c(Cl)cccc4Cl)ccc3C2)C1` (centres unmarked) [Compound 1, 1-(7-((2,6-dichlorobenzyl)oxy)chroman-3-yl)azetidine-3-carboxylic acid], the half-maximal effective concentration (EC50) at human S1PR1 was greater than 1 µM; on human S1PR5 it was less than 0.01 µM; on human S1PR4 it was greater than 1 µM; on human S1PR3 it was greater than 1 µM.

`O=C(O)C1CN(C2CCc3cc(OCc4c(Cl)cccc4Cl)ccc3C2)C1` (centres unmarked) [Compound 4, 1-(6-((2,6-dichlorobenzyl)oxy)-1,2,3,4-tetrahydronaphthalen-2-yl)azetidine-3-carboxylic acid]: the EC50 at human S1PR1 is greater than 1 µM; at human S1PR5, less than 0.01 µM; at human S1PR3 it was greater than 1 µM.

`CCc1cccc(Cl)c1COc1ccc2c(c1)CCC(NC1(C(=O)O)CC1)C2` (centres unmarked) [Compound 5, 1-((6-((2-chloro-6-ethylbenzyl)oxy)-1,2,3,4-tetrahydronaphthalen-2-yl)amino)cyclopropanecarboxylic acid]: the EC50 at human S1PR1 was greater than 1 µM; at human S1PR5, less than 0.01 µM; at human S1PR4 it was less than 1 µM; at human S1PR3 it was greater than 1 µM.

For `CCc1cccc(Cl)c1COc1ccc2c(c1)CCC(NCCC(=O)O)C2` (centres unmarked) [Compound 6, 3-((6-((2-chloro-6-ethylbenzyl)oxy)-1,2,3,4-tetrahydronaphthalen-2-yl)amino)propanoic acid], the EC50 at human S1PR1 is less than 1 µM; at human S1PR5 it was less than 0.01 µM; at human S1PR3, greater than 1 µM.

For `O=C(O)CCNC1CCc2cc(OCc3ccccc3)ccc2C1` (centres unmarked) [Compound 7, 3-((6-(benzyloxy)-1,2,3,4-tetrahydronaphthalen-2-yl)amino)propanoic acid], the EC50 was greater than 1 µM on human S1PR1, 0.01 to 0.1 µM on human S1PR5 and greater than 1 µM at human S1PR3.

With `O=C(O)CCNC1CCc2cc(OCc3ccccc3Cl)ccc2C1` (centres unmarked) [Compound 8, 3-((6-((2-chlorobenzyl)oxy)-1,2,3,4-tetrahydronaphthalen-2-yl)amino)propanoic acid], the 50% effective concentration (EC50) at human S1PR1 is greater than 1 µM; at human S1PR5, less than 0.01 µM; on human S1PR4 it was less than 1 µM; at human S1PR3 it was greater than 1 µM.

As to `O=C(O)CCNC1CCc2cc(OCc3c(Cl)cccc3Cl)ccc2C1` (centres unmarked) [Compound 9, 3-((6-((2,6-dichlorobenzyl)oxy)-1,2,3,4-tetrahydronaphthalen-2-yl)amino)propanoic acid], the EC50 on human S1PR1 is greater than 1 µM; on human S1PR5, less than 0.01 µM; on human S1PR3 it was greater than 1 µM.

For `O=C(O)CCNC1CCc2ccc(OCc3c(Cl)cccc3Cl)cc2C1` (centres unmarked) [Compound 10, 3-((7-((2,6-dichlorobenzyl)oxy)-1,2,3,4-tetrahydronaphthalen-2-yl)amino)propanoic acid], the figures for the EC50 on human S1PR1, at human S1PR5 and on human S1PR3 were greater than 1 µM, 1 to 10 µM and greater than 1 µM, respectively.

Regarding `O=C(O)CCNC1CCc2cc(OCc3ccc(Cl)cc3)ccc2C1` (centres unmarked) [Compound 11, 3-((6-((4-chlorobenzyl)oxy)-1,2,3,4-tetrahydronaphthalen-2-yl)amino) propanoic acid], the figures for the EC50 on human S1PR1, on human S1PR5 and at human S1PR3 were greater than 1 µM, 1 to 10 µM and greater than 1 µM, respectively.

As to `O=C(O)CCNC1CCc2cc(C#Cc3c(Cl)cccc3Cl)ccc2C1` (centres unmarked) [Compound 12, 3-((6-((2,6-dichlorophenyl)ethynyl)-1,2,3,4-tetrahydronaphthalen-2-yl)amino)propanoic acid], the EC50 is greater than 1 µM at human S1PR1, less than 0.01 µM on human S1PR5, less than 1 µM at human S1PR4 and greater than 1 µM on human S1PR3.

For the molecule `CN(CCC(=O)O)C1CCc2cc(C#Cc3c(Cl)cccc3Cl)ccc2C1` (centres unmarked) [Compound 13, 3-((6-((2,6-dichlorophenyl)ethynyl)-1,2,3,4-tetrahydronaphthalen-2-yl)(methyl)amino)propanoic acid], the EC50 at human S1PR1 is greater than 1 µM; at human S1PR5, less than 0.01 µM; at human S1PR4, less than 1 µM; on human S1PR3, greater than 1 µM.

As to `O=C(O)CCNC1CCc2cc(C#Cc3cc(F)cc(F)c3)ccc2C1` (centres unmarked) [Compound 14, 3-((6-((3,5-difluorophenyl)ethynyl)-1,2,3,4-tetrahydronaphthalen-2-yl)amino)propanoic acid], the EC50 on human S1PR1 was greater than 1 µM; on human S1PR5, less than 0.01 µM; on human S1PR4, less than 1 µM; at human S1PR3 it was greater than 1 µM.

For the molecule `CN(CCC(=O)O)C1CCc2cc(C#Cc3cc(F)cc(F)c3)ccc2C1` (centres unmarked) [Compound 15, 3-((6-((3,5-difluorophenyl)ethynyl)-1,2,3,4-tetrahydronaphthalen-2-yl)(methyl)amino)propanoic acid], the EC50 on human S1PR1 was greater than 1 µM; on human S1PR5, less than 0.01 µM; at human S1PR4 it was less than 1 µM; at human S1PR3 it was greater than 1 µM.

Regarding `CN(CCC(=O)O)C1CCc2cc(OCc3ccccc3Cl)ccc2C1` (centres unmarked) [Compound 16, 3-((6-((2-chlorobenzyl)oxy)-1,2,3,4-tetrahydronaphthalen-2-yl)(methyl)amino)propanoic acid], the EC50 at human S1PR1 was greater than 1 µM; at human S1PR5 it was 0.1 to 1 µM; at human S1PR4, less than 1 µM; at human S1PR3 it was greater than 1 µM.

`CCc1cccc(Cl)c1COc1ccc2c(c1)CCC(N(C)CCC(=O)O)C2` (centres unmarked) [Compound 17, 3-((6-((2-chloro-6-ethylbenzyl)oxy)-1,2,3,4-tetrahydronaphthalen-2-yl)(methyl)amino)propanoic acid]: the EC50 at human S1PR1 was less than 1 µM; on human S1PR5 it was less than 0.01 µM; at human S1PR4, less than 1 µM; at human S1PR3, greater than 1 µM.

As for `O=C(O)CCNC1CCc2cc(/C=C/c3c(Cl)cccc3Cl)ccc2C1` (centres unmarked) [Compound 18, (E)-3-((6-(2,6-dichlorostyryl)-1,2,3,4-tetrahydronaphthalen-2-yl)amino)-propanoic acid], the EC50 at human S1PR1 was less than 1 µM; on human S1PR5 it was less than 0.01 µM; at human S1PR4, less than 1 µM; on human S1PR3, greater than 1 µM.

For the molecule `O=C(O)CCNC1CCc2cc(/C=C/c3ccccc3)ccc2C1` (centres unmarked) [Compound 19, (E)-3-((6-styryl-1,2,3,4-tetrahydronaphthalen-2-yl)amino)propanoic acid], the EC50 on human S1PR1 was greater than 1 µM; on human S1PR5, 0.01 to 0.1 µM; on human S1PR4, less than 1 µM; at human S1PR3, greater than 1 µM.

As for `O=C(O)CCNC1CCc2cc(/C=C/c3cccc(Cl)c3)ccc2C1` (centres unmarked) [Compound 20, (E)-3-((6-(3-chlorostyryl)-1,2,3,4-tetrahydronaphthalen-2-yl)amino)-propanoic acid], the EC50 on human S1PR1 was greater than 1 µM; on human S1PR5 it was less than 0.01 µM; on human S1PR4, less than 1 µM; on human S1PR3 it was greater than 1 µM.

As for `O=C(O)CCNC1CCc2cc(OCc3c(Cl)cccc3C3CC3)ccc2C1` (centres unmarked) [Compound 21, 3-((6-((2-chloro-6-cyclopropylbenzyl)oxy)-1,2,3,4-tetrahydronaphthalen-2-yl)amino)propanoic acid], the EC50 on human S1PR1 was greater than 1 µM; at human S1PR5 it was 1 to 10 µM; on human S1PR4, greater than 1 µM; on human S1PR3, greater than 1 µM.

`C=C(CN(Cc1c(Cl)cccc1CC)C1CCc2cc(OCc3c(Cl)cccc3CC)ccc2C1)C(=O)OC` (centres unmarked) [Compound 22, Methyl 2-(((2-chloro-6-ethylbenzyl)(6-((2-chloro-6-ethylbenzyl)oxy)-1,2,3,4-tetrahydronaphthalen-2-yl)amino)methyl)acrylate]: the EC50 on human S1PR1 is greater than 1 µM; on human S1PR5, 1 to 10 µM; at human S1PR4 it was greater than 1 µM; at human S1PR3, greater than 1 µM.

Consider `CCc1cccc(Cl)c1COc1ccc2c(c1)OCC(N1CC(C(=O)O)C1)C2` (centres unmarked) [Compound 23, 1-(7-((2-chloro-6-ethylbenzyl)oxy)chroman-3-yl)azetidine-3-carboxylic acid], for which the EC50 at human S1PR1 is greater than 1 µM; on human S1PR5 it was less than 0.01 µM; at human S1PR4 it was less than 1 µM; on human S1PR3 it was greater than 1 µM.

Turning to `O=C(O)C1CN(C2COc3cc(OCc4cccc(Cl)c4)ccc3C2)C1` (centres unmarked) [Compound 24, 1-(7-((3-chlorobenzyl)oxy)chroman-3-yl)azetidine-3-carboxylic acid], the EC50 was greater than 1 µM at human S1PR1, 1 to 10 µM at human S1PR5, greater than 1 µM on human S1PR4 and greater than 1 µM at human S1PR3.
